Source: ChEMBL document CHEMBL1144021, “Molecular determinants of the anticonvulsant felbamate binding site in the N-methyl-D-aspartate receptor” (J Med Chem, 2008)

Key:
[1] = Ratio of Kapp for wild type NR2B receptor to Kapp for NR2B receptor M3c L643A mutant
[2] = Ratio of Kapp for wild type NR2B receptor to Kapp for NR2B receptor L643A/S645A mutant
[3] = Ratio of Kapp for wild type NR2B receptor to Kapp for NR2B receptor T647A/T103A mutant
[4] = system: Glutamate receptor ionotropic, NMDA 2B (Homo sapiens), Q13224 [A648C]; test: Inhibition of NR2B receptor M3c A648C mutant expressed in Xenopus oocytes assessed as NMDA current at 0.5 mM relative to control; format: cell-based; settings: Oocyte
[5] = system: Glutamate receptor ionotropic, NMDA 2B (Homo sapiens), Q13224 [L643A]; test: Inhibition of NR2B receptor M3c L643A mutant expressed in Xenopus oocytes assessed as NMDA current at 0.5 mM relative to control; format: cell-based; settings: Oocyte
[6] = system: Glutamate receptor ionotropic, NMDA 2B (Homo sapiens), Q13224 [A644C]; test: Inhibition of NR2B receptor M3c A644C mutant expressed in Xenopus oocytes assessed as NMDA current at 0.5 mM relative to control; format: cell-based; settings: Oocyte
Glutamate receptor ionotropic, NMDA 2B (Homo sapiens), Q13224 [A644C], sequence (Q13224 whole entry A644C): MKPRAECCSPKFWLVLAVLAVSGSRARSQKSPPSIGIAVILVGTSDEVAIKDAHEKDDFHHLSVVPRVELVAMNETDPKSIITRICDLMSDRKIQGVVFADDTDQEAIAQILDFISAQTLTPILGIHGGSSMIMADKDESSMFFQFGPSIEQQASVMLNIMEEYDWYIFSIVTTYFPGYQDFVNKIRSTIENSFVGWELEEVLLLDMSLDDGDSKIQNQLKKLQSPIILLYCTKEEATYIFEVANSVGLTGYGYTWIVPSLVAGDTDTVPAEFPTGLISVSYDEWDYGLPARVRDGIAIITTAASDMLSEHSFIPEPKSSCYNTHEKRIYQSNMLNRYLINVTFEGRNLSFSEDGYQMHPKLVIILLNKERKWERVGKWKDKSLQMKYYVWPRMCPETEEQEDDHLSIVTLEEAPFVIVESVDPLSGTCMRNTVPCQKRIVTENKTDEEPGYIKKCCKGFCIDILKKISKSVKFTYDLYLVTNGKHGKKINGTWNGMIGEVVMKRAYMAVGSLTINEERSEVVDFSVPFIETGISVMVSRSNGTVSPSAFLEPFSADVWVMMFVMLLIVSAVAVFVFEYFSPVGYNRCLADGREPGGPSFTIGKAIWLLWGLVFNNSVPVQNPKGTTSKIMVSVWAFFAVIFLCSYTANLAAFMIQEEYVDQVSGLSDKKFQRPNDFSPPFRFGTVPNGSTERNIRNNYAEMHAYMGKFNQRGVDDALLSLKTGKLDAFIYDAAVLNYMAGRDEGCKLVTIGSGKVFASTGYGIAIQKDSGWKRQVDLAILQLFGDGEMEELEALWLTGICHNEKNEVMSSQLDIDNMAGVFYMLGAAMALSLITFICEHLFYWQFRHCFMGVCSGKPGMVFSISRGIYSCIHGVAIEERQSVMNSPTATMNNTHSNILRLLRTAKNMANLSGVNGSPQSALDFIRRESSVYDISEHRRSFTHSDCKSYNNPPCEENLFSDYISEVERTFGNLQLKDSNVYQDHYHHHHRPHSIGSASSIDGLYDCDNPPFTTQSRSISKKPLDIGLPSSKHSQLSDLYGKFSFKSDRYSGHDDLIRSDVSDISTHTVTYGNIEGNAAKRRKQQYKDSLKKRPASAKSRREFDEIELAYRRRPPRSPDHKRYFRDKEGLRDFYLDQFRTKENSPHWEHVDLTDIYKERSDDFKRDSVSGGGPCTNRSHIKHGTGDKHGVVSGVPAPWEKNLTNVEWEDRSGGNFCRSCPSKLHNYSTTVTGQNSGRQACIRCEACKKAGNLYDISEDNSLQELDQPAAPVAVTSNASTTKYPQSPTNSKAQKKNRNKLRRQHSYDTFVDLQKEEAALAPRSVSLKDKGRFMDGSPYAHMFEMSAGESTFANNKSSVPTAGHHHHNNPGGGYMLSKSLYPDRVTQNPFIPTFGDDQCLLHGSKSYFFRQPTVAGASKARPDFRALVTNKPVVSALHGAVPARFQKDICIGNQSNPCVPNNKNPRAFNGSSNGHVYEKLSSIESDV

[7] = Ratio of Kapp for wild type NR2B receptor to Kapp for NR2B receptor L643A/K234A mutant
[8] = system: Glutamate receptor ionotropic, NMDA 2B (Homo sapiens), Q13224 [F182A]; test: Inhibition of NR2B receptor ATD F182A mutant expressed in Xenopus oocytes assessed as NMDA current at 0.5 mM relative to control; format: cell-based; settings: Oocyte
[9] = target: Glutamate receptor ionotropic, NMDA 2B (Homo sapiens) (UniProt Q13224); test: Binding affinity to NR2B receptor
Glutamate receptor ionotropic, NMDA 2B (Homo sapiens), sequence (Q13224 27-1484 limits assumed): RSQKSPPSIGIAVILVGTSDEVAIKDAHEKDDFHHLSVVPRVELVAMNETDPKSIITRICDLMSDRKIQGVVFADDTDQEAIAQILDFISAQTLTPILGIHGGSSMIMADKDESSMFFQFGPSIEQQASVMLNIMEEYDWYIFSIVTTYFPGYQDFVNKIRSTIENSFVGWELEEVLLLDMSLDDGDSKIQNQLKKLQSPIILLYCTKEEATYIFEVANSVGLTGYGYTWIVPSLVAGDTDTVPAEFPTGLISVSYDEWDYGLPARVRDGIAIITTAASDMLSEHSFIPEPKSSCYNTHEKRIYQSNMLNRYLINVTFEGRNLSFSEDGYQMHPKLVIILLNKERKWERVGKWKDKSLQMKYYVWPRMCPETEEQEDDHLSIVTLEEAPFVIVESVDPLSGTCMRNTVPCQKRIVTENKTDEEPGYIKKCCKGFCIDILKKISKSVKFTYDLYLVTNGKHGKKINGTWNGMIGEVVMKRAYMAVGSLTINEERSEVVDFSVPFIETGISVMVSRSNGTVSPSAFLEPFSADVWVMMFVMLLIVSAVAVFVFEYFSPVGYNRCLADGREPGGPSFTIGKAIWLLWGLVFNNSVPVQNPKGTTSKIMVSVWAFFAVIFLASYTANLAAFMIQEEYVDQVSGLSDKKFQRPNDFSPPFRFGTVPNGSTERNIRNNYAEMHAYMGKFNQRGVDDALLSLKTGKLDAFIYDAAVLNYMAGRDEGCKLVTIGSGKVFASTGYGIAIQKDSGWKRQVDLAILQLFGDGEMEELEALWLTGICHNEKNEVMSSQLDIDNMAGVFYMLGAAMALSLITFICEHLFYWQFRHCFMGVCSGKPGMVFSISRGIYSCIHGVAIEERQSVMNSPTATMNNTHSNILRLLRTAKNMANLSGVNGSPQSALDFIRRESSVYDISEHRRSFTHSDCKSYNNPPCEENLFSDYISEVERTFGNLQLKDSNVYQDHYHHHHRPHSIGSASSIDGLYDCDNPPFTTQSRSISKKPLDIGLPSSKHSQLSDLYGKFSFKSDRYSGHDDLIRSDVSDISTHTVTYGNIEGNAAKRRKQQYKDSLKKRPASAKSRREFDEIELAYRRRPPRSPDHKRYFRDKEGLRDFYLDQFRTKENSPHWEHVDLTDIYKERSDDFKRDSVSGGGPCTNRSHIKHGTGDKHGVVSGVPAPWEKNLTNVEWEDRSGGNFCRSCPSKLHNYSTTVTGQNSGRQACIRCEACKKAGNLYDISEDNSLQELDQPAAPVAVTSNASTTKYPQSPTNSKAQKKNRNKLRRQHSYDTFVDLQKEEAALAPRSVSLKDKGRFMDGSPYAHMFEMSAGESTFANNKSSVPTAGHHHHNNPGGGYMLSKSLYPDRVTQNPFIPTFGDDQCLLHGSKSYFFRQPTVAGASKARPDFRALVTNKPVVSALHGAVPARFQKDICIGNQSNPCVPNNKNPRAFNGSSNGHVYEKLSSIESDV

[10] = Ratio of Kapp for wild type NR2B receptor to Kapp for NR2B receptor L643C/T647A mutant
[11] = system: Glutamate receptor ionotropic, NMDA 2B (Homo sapiens), Q13224 [L643A,T103A]; test: Binding affinity to NR2B receptor L643A/T103A mutant
[12] = system: Glutamate receptor ionotropic, NMDA 2B (Homo sapiens), Q13224 [T647A]; test: Inhibition of NR2B receptor M3c T647A mutant expressed in Xenopus oocytes assessed as NMDA current at 0.5 mM relative to control; format: cell-based; settings: Oocyte
[13] = system: Glutamate receptor ionotropic, NMDA 2B (Homo sapiens), Q13224 [L643A,K234A]; test: Binding affinity to NR2B receptor L643A/K234A mutant
[14] = system: Glutamate receptor ionotropic, NMDA 2B (Homo sapiens), Q13224 [A651T]; test: Inhibition of NR2B receptor M3c A651T mutant expressed in Xenopus oocytes assessed as NMDA current at 0.5 mM relative to control; format: cell-based; settings: Oocyte
[15] = system: Glutamate receptor ionotropic, NMDA 2B (Homo sapiens), Q13224 [Y646A]; test: Inhibition of NR2B receptor M3c Y646A mutant expressed in Xenopus oocytes assessed as NMDA current at 0.5 mM relative to control; format: cell-based; settings: Oocyte
Glutamate receptor ionotropic, NMDA 2B (Homo sapiens), Q13224 [Y646A], sequence (Q13224 whole entry Y646A): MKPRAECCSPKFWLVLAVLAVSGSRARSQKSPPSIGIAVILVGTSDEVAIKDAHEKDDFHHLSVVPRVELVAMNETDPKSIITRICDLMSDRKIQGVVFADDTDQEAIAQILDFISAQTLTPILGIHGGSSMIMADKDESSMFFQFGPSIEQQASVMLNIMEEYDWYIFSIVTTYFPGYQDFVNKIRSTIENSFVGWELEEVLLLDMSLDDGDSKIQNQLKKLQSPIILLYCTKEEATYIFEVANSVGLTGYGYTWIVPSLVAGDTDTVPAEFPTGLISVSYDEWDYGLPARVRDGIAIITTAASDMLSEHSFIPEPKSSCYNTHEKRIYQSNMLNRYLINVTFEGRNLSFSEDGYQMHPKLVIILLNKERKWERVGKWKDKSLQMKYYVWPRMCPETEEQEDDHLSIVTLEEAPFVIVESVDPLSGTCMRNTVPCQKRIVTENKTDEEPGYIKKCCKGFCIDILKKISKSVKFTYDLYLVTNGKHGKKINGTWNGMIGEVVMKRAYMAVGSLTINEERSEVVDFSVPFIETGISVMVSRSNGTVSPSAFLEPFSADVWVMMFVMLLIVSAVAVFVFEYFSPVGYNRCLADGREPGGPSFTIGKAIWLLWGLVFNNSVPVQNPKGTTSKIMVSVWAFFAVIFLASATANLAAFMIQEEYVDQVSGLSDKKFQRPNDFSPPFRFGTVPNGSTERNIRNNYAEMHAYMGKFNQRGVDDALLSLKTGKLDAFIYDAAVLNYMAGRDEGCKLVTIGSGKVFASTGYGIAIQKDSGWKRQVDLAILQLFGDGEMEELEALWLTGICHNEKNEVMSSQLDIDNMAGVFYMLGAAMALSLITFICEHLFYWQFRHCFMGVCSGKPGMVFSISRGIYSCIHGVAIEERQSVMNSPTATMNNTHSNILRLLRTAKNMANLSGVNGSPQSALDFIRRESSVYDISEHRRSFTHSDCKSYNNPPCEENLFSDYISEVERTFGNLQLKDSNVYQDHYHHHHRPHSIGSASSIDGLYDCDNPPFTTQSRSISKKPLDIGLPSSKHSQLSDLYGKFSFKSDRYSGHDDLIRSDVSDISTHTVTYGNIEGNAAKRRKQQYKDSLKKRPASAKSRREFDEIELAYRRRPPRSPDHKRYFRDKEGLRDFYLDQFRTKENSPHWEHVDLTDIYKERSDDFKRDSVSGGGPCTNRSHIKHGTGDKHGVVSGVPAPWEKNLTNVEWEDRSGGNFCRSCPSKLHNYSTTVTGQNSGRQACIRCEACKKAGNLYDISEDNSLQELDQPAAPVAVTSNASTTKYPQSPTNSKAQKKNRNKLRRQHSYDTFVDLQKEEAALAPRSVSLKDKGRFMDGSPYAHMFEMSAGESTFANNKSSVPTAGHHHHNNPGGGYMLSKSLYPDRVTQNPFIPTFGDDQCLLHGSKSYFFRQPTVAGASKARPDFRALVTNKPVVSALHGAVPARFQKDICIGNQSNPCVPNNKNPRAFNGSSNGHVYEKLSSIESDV

Ratio Ki(app) [1]: 6.5
Ratio Ki(app) [2]: 7.7
Ratio Ki(app) [3]: 7.7
inhibition [4]: 73%
inhibition [5]: 90%
inhibition [6]: 73%
Ratio Ki(app) [7]: 7.3
inhibition [8]: 72%
Kapp [9]: 0.87 mM
Ratio Ki(app) [10]: 21
Kapp [11]: 5.07 mM
inhibition [12]: 89%
Kapp [13]: 6.33 mM
inhibition [14]: 72%
inhibition [15]: 74%
SMILES: NC(=O)OCC(COC(N)=O)c1ccccc1
